According to patent US20110152313A1 (MACQUARIE UNIVERSITY, priority 2008, published 2011):

Columns and labels:
Test in all cases: kinase binding screen (kinase-tagged T7 phage, qPCR), % Ctrl
AAK1 = AAK1 (Homo sapiens, UniProt Q2M2I8)
Experimental: (§1) Percentage kinase inhibition at a set concentration was performed by methods well known in the prior art (Fabian, M. A. et al. Nat. Biotechnol. 2005, 23, 329; Karaman et al. (2008) Nat. Biotechnol. […], 26, 127). Briefly, kinase-tagged T7 phage strains were grown in parallel in 24-well blocks in an E. coli host derived from the BL21 strain. E. coli were grown to log-phase and infected with T7 phage from a frozen stock (multiplicity of infection=0.4) and incubated with shaking at 32° C. until lysis (90-150 minutes). The lysates were centrifuged (6,000×g) and filtered (0.2 μm) to remove cell debris. […] The liganded beads were blocked with excess biotin and washed with blocking buffer (SeaBlock (Pierce); 1% BSA, 0.05% Tween 20, 1 mM DTT) to remove unbound ligand and to reduce non-specific phage binding. […] Test compounds were prepared as 40× stocks in 100% DMSO and directly diluted into the assay. All reactions were performed in polypropylene 384-well plates in a final volume of 0.04 mL. […] The kinase concentration in the eluates was measured by qPCR.

CAMK4 = molecular target: T1, CAMK4 (Homo sapiens, UniProt Q16566)
T1 sequence (Q16566 1-473): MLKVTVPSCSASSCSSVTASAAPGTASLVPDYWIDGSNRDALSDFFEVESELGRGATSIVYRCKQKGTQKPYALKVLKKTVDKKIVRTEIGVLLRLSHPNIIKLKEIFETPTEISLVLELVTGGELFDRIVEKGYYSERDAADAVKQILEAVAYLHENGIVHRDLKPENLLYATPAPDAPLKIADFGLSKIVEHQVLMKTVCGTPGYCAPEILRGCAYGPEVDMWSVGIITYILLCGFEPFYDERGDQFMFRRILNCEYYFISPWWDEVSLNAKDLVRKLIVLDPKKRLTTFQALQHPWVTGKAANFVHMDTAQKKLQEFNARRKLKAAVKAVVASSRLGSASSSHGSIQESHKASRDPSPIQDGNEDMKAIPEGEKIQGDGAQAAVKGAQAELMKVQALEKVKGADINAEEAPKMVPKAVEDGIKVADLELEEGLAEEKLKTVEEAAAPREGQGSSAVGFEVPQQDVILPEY
Experimental: as §1

MKNK2 = MKNK2 (Homo sapiens, UniProt Q9HBH9)
MKNK2, sequence (Q9HBH9 whole entry, species assumed): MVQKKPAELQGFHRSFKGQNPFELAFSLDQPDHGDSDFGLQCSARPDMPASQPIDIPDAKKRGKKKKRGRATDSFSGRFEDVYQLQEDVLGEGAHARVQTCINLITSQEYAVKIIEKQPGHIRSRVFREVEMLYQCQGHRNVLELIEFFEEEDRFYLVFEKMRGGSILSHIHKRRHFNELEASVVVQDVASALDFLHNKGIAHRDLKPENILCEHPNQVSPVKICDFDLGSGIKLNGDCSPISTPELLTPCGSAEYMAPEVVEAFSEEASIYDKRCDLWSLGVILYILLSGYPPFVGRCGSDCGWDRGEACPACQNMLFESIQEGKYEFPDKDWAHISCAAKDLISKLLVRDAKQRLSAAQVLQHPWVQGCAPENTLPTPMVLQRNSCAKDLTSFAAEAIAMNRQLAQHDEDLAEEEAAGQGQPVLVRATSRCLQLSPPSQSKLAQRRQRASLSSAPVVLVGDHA
Experimental: as §1

[1] = molecular target: T2, RPS6KA6(Kin.Dom.2-C-terminal) (Homo sapiens, UniProt Q9UK32)
T2 sequence (Q9UK32 426-683 limits assumed): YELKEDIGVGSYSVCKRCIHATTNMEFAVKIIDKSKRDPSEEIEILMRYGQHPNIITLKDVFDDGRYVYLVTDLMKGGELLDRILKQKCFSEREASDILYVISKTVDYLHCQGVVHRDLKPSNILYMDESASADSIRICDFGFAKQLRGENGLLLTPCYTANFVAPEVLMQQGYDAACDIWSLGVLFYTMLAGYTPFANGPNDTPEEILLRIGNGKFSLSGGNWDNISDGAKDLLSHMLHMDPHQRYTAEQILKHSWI
Experimental: as §1

SgK085 = molecular target: T3, SgK085 (Homo sapiens, UniProt Q86YV6)
T3 sequence (Q86YV6 1-388): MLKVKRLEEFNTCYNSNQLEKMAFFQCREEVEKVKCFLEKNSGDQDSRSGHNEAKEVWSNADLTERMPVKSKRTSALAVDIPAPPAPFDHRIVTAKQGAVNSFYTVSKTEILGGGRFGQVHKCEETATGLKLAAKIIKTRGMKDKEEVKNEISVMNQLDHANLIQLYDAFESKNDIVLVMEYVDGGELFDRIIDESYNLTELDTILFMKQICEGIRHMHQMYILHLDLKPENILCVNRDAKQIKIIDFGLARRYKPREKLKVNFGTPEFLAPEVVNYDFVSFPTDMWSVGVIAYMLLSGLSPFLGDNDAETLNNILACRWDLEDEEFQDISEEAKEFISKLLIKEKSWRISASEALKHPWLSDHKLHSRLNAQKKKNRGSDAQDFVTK
Experimental: as §1

ULK1 = molecular target: T4, ULK1 (Homo sapiens, UniProt O75385)
T4 sequence (O75385 1-1050): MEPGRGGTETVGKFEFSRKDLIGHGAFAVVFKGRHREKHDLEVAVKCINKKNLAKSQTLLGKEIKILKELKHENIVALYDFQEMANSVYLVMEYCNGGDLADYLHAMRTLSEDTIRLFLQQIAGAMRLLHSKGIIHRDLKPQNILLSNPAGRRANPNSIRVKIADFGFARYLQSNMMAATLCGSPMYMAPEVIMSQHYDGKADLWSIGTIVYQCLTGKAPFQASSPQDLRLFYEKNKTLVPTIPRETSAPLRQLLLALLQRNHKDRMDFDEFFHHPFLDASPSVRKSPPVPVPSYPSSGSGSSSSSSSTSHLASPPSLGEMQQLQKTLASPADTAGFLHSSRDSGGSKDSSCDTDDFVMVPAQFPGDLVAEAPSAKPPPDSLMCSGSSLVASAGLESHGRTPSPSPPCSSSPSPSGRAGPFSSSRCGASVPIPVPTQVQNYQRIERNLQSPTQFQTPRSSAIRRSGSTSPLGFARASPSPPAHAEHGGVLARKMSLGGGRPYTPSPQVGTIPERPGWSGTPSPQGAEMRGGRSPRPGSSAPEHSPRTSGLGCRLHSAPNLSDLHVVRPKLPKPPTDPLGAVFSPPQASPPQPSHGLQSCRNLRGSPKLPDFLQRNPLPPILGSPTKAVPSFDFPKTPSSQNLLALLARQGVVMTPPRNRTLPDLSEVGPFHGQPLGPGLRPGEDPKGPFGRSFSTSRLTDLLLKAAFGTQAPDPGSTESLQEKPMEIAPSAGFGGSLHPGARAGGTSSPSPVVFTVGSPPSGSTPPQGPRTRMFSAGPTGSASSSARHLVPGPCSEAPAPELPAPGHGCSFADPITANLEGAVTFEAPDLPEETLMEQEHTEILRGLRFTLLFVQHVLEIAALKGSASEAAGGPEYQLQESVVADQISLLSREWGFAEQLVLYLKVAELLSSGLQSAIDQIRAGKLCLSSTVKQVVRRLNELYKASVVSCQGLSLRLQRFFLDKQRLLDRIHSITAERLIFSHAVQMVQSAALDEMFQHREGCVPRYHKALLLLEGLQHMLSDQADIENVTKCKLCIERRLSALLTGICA
Experimental: as §1

AAK1, sequence (Q2M2I8 whole entry): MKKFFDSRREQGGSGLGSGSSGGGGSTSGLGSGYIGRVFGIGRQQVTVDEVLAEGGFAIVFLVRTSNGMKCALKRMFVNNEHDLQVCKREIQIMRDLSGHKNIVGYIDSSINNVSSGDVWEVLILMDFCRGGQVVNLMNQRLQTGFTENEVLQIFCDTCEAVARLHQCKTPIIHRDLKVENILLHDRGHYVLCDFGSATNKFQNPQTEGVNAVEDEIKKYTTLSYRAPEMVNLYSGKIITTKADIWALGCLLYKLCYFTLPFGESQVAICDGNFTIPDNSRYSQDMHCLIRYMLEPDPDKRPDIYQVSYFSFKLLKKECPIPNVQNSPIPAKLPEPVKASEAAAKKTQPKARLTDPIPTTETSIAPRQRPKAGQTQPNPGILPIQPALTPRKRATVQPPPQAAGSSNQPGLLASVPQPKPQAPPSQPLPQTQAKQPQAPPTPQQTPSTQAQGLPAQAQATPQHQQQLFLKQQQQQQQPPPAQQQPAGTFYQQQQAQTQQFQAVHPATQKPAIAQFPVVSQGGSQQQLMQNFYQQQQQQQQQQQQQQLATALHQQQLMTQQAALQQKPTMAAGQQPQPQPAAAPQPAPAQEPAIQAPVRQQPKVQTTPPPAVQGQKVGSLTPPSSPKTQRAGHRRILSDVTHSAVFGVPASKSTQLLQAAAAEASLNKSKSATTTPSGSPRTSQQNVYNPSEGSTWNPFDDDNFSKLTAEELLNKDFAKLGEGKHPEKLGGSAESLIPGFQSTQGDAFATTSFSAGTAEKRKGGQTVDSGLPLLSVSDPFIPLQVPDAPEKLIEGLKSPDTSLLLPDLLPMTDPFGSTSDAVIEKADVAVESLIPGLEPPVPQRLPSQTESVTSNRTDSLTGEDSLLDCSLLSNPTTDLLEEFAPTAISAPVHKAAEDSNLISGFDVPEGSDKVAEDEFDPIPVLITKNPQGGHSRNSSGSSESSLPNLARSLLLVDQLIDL

Nc1nc2c(-c3cnc4ccccc4c3)nccc2[nH]1 [drawing 36, 4-(quinolin-3-yl)-1H-imidazo[4,5-c]pyridin-2-amine]
remaining activity at 1 µM (AAK1): 83% | remaining activity at 1 µM (CAMK4): 100% | remaining activity at 1 µM (MKNK2): 100% | remaining activity at 1 µM [1]: 100% | remaining activity at 1 µM (SgK085): 92% | remaining activity at 1 µM (ULK1): 91%

Nc1nc2c(-c3ccccn3)nccc2[nH]1 [drawing 35, 4-(pyrid-2-yl)-1H-imidazo[4,5-c]pyridin-2-amine]
remaining activity at 1 µM (AAK1): 27% | remaining activity at 1 µM (CAMK4): 100% | remaining activity at 1 µM (MKNK2): 86% | remaining activity at 1 µM [1]: 49% | remaining activity at 1 µM (SgK085): 43% | remaining activity at 1 µM (ULK1): 33%

Nc1nc2c(-c3cc(Br)c(Br)[nH]3)nccc2[nH]1 [Ageladine A, ageladine A, reference compound]
remaining activity at 1 µM (AAK1): 90% | remaining activity at 10 µM (AAK1; 10 μM): 83% | remaining activity at 1 µM (CAMK4): 100% | remaining activity at 10 µM (CAMK4; 10 μM): 97% | remaining activity at 1 µM (MKNK2): 2.5% | remaining activity at 10 µM (MKNK2; 10 μM): 69% | remaining activity at 1 µM [1]: 51% | remaining activity at 10 µM ([1]; 10 μM): 34% | remaining activity at 1 µM (SgK085): 89% | remaining activity at 10 µM (SgK085; 10 μM): 90% | remaining activity at 1 µM (ULK1): 62% | remaining activity at 10 µM (ULK1; 10 μM): 20%
